Reference: patent US20230393120A1, “A HUMAN VASCULAR INJURY-ON-A-CHIP MODEL OF HEMOSTASIS” (THE TRUSTEES OF THE UNIVERSITY OF PENNSYLVANIA, priority 2020, published 2023)
Where a SMILES comes first, the peptide text is derived from it. Bridges are numbered along the chain shown (N, C = ends). [ ]: non-standard residue; d: D form. hArg = N=C(N)NCCCC[C@H](N)C(=O)O; Mpa = O=C(O)CCS

Test system: injury-induced platelet and fibrin deposition (hemostatic plug formation), human whole blood
Assay: Drug testing in the vascular injury-on-a-chip perfused with drug-containing whole blood
Assay type: cell-based
Source text: Human vascular injury-on-a-chip as a drug screening platform: anticoagulants and antiplatelet agents can be used for treating or preventing thrombotic events in the arterial and venous circulations. However, anticoagulants and antiplatelet agents can increase the risk of bleeding, especially when used in combination. The disclosed vascular injury-on-a-chip model provides a potential tool for evaluating these adverse effects, offering a complementary approach to animal models. Such features were tested using Hirudin and eptifibatide as model compounds representing anticoagulant and antiplatelet drugs, respectively. The disclosed subject matter was used to measure and compare the extent of injury-induced platelet and fibrin deposition when the disclosed devices were perfused with drug-containing whole blood. […] For quantitative analysis, we devised an injury closure score ranging between 0 and 2, which corresponds to fully open and fully closed, respectively. The hirudin-treated devices yielded an average score of […] the untreated control group scored 1.138. (FIG. 5E), indicating the adverse effects of Hirudin on the formation of competent hemostatic plugs.
Preparation of blood vessel-on-a-chip: Assembled devices were autoclaved for sterilization prior to cell culture. To increase the strength of interfacial adhesion between collagen gel and PDMS, dopamine hydrochloride (Sigma-Aldrich) solution (2.0 mg/mL w/v in 10 mM Tris-HCl buffer, pH 8.5) was injected into the middle compartment of the device and incubated for 2 hours at room temperature. Next, 6 mg/ml of rat-tail collagen type I containing 2.5% (v/v) lipidated tissue factor (Dade Innovin Reagent, Siemens) was introduced into the polydopamine-treated chamber and polymerized at 37° C. for 30 minutes. After gelation, HUVECs suspended in EGM-2 medium were seeded into the intravascular channel at a density of 1.6-1.8×10^6 cells/ml and allowed to settle and adhere to the surface of the collagen hydrogel by rotating the device by 90°. Following cell attachment, the device was perfused with medium to form a confluent endothelial monolayer. For TNF-a experiments, HUVECs were seeded on a tissue factor-free collagen gel and treated overnight with 1 ng/ml of TNF-a (Peprotech).
Healthy donor blood preparation: The blood was obtained via venipuncture into a syringe containing 3.8% sodium citrate (9:1) and 40 μg/ml of corn trypsin inhibitor (CTI). Right before perfusion through the device, the blood was recalcified (15 mM CaCl2) for 3 minutes. Fluorescently-labeled antibodies to detect platelets (a-CD61-568), P-selectin (a-CD62P-647), and fibrin (a-Fibrin-488) were added at a final concentration of 1 μg/ml. If inhibitors were used in the experiment, they were added in the recalcification step as well. The final concentration for eptifibatide acetate was 100 μM, and for Hirudin was 4 μg/ml.
Puncture injury and global hemostasis assessment: For precise spatial control of injury, a 30 G blunt needle was inserted between the two PM DS channel layers during device assembly and used as a sheath that guides the insertion of a microneedle. To induce puncture injury, either a 0.12 or 0.20 mm acupuncture needle was inserted into the guide needle and gently pushed towards the extravascular compartments in a controlled manner either to pierce through the endothelium and the entire thickness of the collagen hydrogel or to superficially injure the endothelial layer. Following injury, the intravascular and extravascular channels were perfused with recalcified blood and HBSS buffer (20 mM HEPES, 2 mM Ca2+), respectively using two independently controlled syringe pumps (Fusion 400, Chemyx & BS-8000 120 V, Braintree Scientific).
Fluorescently-labeled antibodies to CD61, P-selectin, and fibrin were added to the blood prior to perfusion through the microfluidic device to visualize platelet deposition, platelet activation, and fibrin accumulation. […]

Q: Which results are given for N=C(N)NCCCC[C@@H]1NC(=O)CCSSC[C@@H](C(N)=O)NC(=O)[C@@H]2CCCN2C(=O)[C@H](Cc2c[nH]c3ccccc23)NC(=O)[C@H](CC(=O)O)NC(=O)CNC1=O [eptifibatide] ([Mpa][hArg]GDWPC-NH2; disulfide 1-7)?
A: contraction of the vessel wall (matrix deformation, normalized injury area over time) (eptifibatide 100 μM): negligible contraction; platelet activation (eptifibatide 100 μM in whole blood): reduction; fibrin accumulation (eptifibatide 100 μM in whole blood, relative to control): did not change; platelet accumulation (eptifibatide 100 μM in whole blood, vs control): markedly reduce; injury channel closure, compared with Hirudin (eptifibatide 100 μM vs Hirudin 4 μg/ml): to a greater extent than Hirudin; state of the injury channel (eptifibatide 100 μM, confocal images): remained open; injury score (0 fully open, 1 partially closed, 2 fully closed) (eptifibatide 100 μM, final time point): 0

Q: Hirudin was tested. Which fibrin accumulation (Hirudin 4 μg/ml in whole blood, vs control) did it give?
A: The fibrin accumulation was “drastically reduce”.

Q: And the platelet accumulation (Hirudin 4 μg/ml in whole blood, vs control without the drug)?
A: The platelet accumulation was “no statistically significant changes”.

Q: And the platelet activation (Hirudin 4 μg/ml in whole blood, vs control without the drug, P-selectin MFI)?
A: Its platelet activation is “no statistically significant changes”.

Q: And the “state of the injury channel openings” value (Hirudin 4 μg/ml, confocal images)?
A: Its value is “intravascular end of the injury channel remained open, but platelet aggregates blocked the extravascular opening”.

Q: What about the “injury closure (injury closure score 0-2, fully open to fully closed)” value (Hirudin 4 μg/ml, final time point) of the same compound?
A: The value was “inhibits”.
